Experimental findings from patent publication US20250214983A1, “1,3,4-OXADIAZOLE TRIAZOLE COMPOUNDS AS HISTONE DEACETYLASE 6 INHIBITOR, AND PHARMACEUTICAL COMPOSITION COMPRISING THE SAME” (Chong Kun Dang Pharmaceutical Corp., priority 2022, published 2025) are described below.

In one assay the target is T1, human recombinant HDAC1 (Homo sapiens, UniProt Q13547).
T1 construct: purchased Enzo Life Science, Inc. BML-SE456
The assay is described as follows: HDAC1 enzyme activity inhibition (HDAC Fluorimetric Drug Discovery Kit). It is filed as biochemical. The conditions noted are these: human recombinant HDAC1, Fluor de Lys substrate 10 μM, 30° C. 60 minutes. As for the experimental part: (§1) An experiment was conducted to identify the selectivity of the 1,3,4-oxadiazole triazole compound of the present invention to HDAC6 through an experiment on HDAC1 and HDAC6 enzyme activity inhibition.
(§2) The HDAC enzyme activity was measured with HDAC Fluorimetric Drug Discovery Kit (BML-AK511, 516) of Enzo Life Science, Inc. For the test on the HDAC1 enzyme activity, human recombinant HDAC1 (BML-SE456) was used as an enzyme source and Fluor de Lys®-“SIRT1 (BNL-KI177)” was used as a substrate. A 5-fold dilution of the compound was divided into a 96-well plate, after which 0.3 μg of the enzyme and 10 μM of the substrate were inserted into each well and subjected to reaction at 30° C. for 60 minutes, such that Fluor de Lys® Developer II (BML-KI176) was inserted thereinto and subjected to reaction for 30 minutes and finished. After that, a fluorescence value (Ex 360, Em 460) was measured with a multi-plate reader (Flexstation 3, Molecular Device). An experiment on HDAC6 enzyme was conducted in accordance with the same protocol as in the HDAC1 enzyme activity test method by using human recombinant HDAC6 (382180) of Calbiochem Inc. For final result values, each IC50 value was calculated with GraphPad Prism 4.0 program.

The next assay has as its target T2, human recombinant HDAC6 (Homo sapiens, UniProt Q9UBN7).
T2 construct: purchased Calbiochem Inc. 382180
T2 sequence (Q9UBN7 1-1215): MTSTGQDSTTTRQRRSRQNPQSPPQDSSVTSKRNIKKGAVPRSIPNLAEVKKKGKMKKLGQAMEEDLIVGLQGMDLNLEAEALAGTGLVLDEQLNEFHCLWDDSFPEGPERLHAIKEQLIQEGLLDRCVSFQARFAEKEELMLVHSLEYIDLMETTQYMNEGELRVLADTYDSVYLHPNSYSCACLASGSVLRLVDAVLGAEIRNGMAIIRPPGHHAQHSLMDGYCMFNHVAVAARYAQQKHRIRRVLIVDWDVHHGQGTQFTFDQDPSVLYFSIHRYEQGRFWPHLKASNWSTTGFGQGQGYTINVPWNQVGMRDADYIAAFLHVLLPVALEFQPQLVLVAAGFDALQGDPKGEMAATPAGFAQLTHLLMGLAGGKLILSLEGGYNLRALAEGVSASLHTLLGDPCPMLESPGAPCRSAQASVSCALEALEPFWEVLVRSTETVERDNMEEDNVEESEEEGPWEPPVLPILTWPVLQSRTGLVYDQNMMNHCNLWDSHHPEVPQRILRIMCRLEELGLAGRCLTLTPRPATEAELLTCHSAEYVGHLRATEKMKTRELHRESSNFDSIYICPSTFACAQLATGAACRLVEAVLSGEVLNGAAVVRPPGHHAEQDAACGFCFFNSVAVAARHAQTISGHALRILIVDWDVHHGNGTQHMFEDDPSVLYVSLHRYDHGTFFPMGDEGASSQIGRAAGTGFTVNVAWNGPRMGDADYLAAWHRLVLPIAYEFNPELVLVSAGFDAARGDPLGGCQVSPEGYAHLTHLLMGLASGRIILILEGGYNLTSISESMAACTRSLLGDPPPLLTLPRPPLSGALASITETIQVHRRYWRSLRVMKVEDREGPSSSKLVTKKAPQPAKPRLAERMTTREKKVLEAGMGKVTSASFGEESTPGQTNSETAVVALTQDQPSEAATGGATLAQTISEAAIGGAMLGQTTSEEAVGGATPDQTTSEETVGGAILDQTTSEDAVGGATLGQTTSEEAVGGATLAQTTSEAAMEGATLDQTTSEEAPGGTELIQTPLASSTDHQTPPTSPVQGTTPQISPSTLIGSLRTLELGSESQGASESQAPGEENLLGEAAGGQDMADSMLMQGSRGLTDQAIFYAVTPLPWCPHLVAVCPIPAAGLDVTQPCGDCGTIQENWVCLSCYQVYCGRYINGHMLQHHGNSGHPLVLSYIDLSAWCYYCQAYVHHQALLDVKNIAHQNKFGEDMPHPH
As to the kind of experiment: HDAC6 enzyme activity inhibition (HDAC Fluorimetric Drug Discovery Kit). It counts as biochemical. The conditions noted are these: HDAC1 versus HDAC6. On the procedure: as §1, §2

Molecules are shown by their SMILES. Some results are limits rather than exact numbers.

T1 sequence (Q13547 whole entry): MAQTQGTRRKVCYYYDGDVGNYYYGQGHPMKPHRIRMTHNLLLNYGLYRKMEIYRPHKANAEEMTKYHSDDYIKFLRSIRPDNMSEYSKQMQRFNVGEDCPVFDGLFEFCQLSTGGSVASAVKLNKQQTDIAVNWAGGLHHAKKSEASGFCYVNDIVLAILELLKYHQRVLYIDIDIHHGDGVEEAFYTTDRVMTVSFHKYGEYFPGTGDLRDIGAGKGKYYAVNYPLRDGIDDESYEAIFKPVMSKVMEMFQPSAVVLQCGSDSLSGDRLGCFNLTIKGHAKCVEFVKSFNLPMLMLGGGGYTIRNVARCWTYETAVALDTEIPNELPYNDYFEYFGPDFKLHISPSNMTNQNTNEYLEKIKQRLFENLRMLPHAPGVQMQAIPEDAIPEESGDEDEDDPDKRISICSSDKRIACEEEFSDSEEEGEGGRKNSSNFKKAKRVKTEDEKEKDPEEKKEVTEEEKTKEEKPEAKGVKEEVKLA

As a reminder, the IC50 is the concentration needed to halve the response being measured. For `FC(F)c1nnc(-c2ccc(Cn3cc(-c4ccc(CN5CCC5)cn4)nn3)nc2)o1` [Compound 2, 2-(6-((4-(5-(azetidin-1-ylmethyl)pyridin-2-yl)-1H-1,2,3-triazol-1-yl)methyl)pyridin-3-yl)-5-(difluoromethyl)-1,3,4-oxadiazole], on human recombinant HDAC1, the IC50 is over 50 µM. The “HDAC6 selectivity (fold)” value on human recombinant HDAC6 was found to be 2252 fold.
With `FC(F)c1nnc(-c2ccc(Cn3cc(-c4ccc(CN5CCCC5)cn4)nn3)nc2)o1` [Compound 3, 2-(difluoromethyl)-5-(6-((4-(5-(pyrrolidin-1-ylmethyl)pyridin-2-yl)-1H-1,2,3-triazol-1-yl)methyl)pyridin-3-yl)-1,3,4-oxadiazole], the IC50 on human recombinant HDAC1 was over 50 µM. Also, the “HDAC6 selectivity (fold)” value at human recombinant HDAC6 is 1712 fold.
On to `CC1CCN(Cc2ccc(-c3cn(Cc4ccc(-c5nnc(C(F)F)o5)cn4)nn3)nc2)CC1` [Compound 4, 2-(difluoromethyl)-5-(6-((4-(5-((4-methylpiperidin-1-yl)methyl)pyridin-2-yl)-1H-1,2,3-triazol-1-yl)methyl)pyridin-3-yl)-1,3,4-oxadiazole], for which the IC50 at human recombinant HDAC1 is over 50 µM. The “HDAC6 selectivity (fold)” value at human recombinant HDAC6 came out at 1428 fold.
Take `FC(F)c1nnc(-c2ccc(Cn3cc(-c4ccc(CN5CC[C@@H](F)C5)nc4)nn3)nc2)o1` [Compound 5, (R)-2-(difluoromethyl)-5-(6-((4-(6-((3-fluoropyrrolidin-1-yl)methyl)pyridin-3-yl)-1H-1,2,3-triazol-1-yl)methyl)pyridin-3-yl)-1,3,4-oxadiazole]: the IC50 on human recombinant HDAC1 is over 50 µM. Further, on human recombinant HDAC6, the “HDAC6 selectivity (fold)” value came to 1547 fold.
The matching figures for `CC1(C)CCN(Cc2ccc(-c3cn(Cc4ccc(-c5nnc(C(F)F)o5)cn4)nn3)cn2)CC1` [Compound 6, 2-(difluoromethyl)-5-(6-((4-(6-((4,4-dimethylpiperidin-1-yl)methyl)pyridin-3-yl)-1H-1,2,3-triazol-1-yl)methyl)pyridin-3-yl)-1,3,4-oxadiazole]: over 50 µM and 1730 fold.
`FC(F)c1nnc(-c2ccc(Cn3cc(-c4ccc(CN5CC[C@H](F)C5)s4)nn3)nc2)o1` [Compound 7, (S)-2-(difluoromethyl)-5-(6-((4-(5-((3-fluoropyrrolidin-1-yl)methyl)thiophen-2-yl)-1H-1,2,3-triazol-1-yl)methyl)pyridin-3-yl)-1,3,4-oxadiazole]: on human recombinant HDAC1, the 50% inhibitory concentration (IC50) is over 50 µM. The “HDAC6 selectivity (fold)” value at human recombinant HDAC6 is 1253 fold.
`FC(F)c1nnc(-c2ccc(Cn3cc(-c4ccc(CN5CC[C@@H](F)C5)s4)nn3)nc2)o1` [Compound 8, (R)-2-(difluoromethyl)-5-(6-((4-(5-((3-fluoropyrrolidin-1-yl)methyl)thiophen-2-yl)-1H-1,2,3-triazol-1-yl)methyl)pyridin-3-yl)-1,3,4-oxadiazole]: the concentration for half-maximal inhibition (IC50) at human recombinant HDAC1 was over 50 µM. Moreover, the “HDAC6 selectivity (fold)” value on human recombinant HDAC6 turned out to be 1048 fold.
The corresponding values for `CN(C)Cc1cc(-c2cn(Cc3ccc(-c4nnc(C(F)F)o4)cn3)nn2)cs1` [Compound 11, 1-(4-(1-((5-(5-(difluoromethyl)-1,3,4-oxadiazol-2-yl)pyridin-2-yl)methyl)-1H-1,2,3-triazol-4-yl)thiophen-2-yl)-N,N-dimethylmethanamine] are over 50 µM and 1577 fold.
The matching figures for `FC(F)c1nnc(-c2ccc(Cn3cc(-c4csc(CN5CC[C@H](F)C5)c4)nn3)nc2)o1` [Compound 13, (S)-2-(difluoromethyl)-5-(6-((4-(5-((3-fluoropyrrolidin-1-yl)methyl)thiophen-3-yl)-1H-1,2,3-triazol-1-yl)methyl)pyridin-3-yl)-1,3,4-oxadiazole]: over 50 µM and 1893 fold.
Turning to `FC(F)c1nnc(-c2ccc(Cn3cc(-c4csc(CN5CC[C@@H](F)C5)c4)nn3)nc2)o1` [Compound 14, (R)-2-(difluoromethyl)-5-(6-((4-(5-((3-fluoropyrrolidin-1-yl)methyl)thiophen-3-yl)-1H-1,2,3-triazol-1-yl)methyl)pyridin-3-yl)-1,3,4-oxadiazole], at human recombinant HDAC1, the half-maximal inhibitory concentration (IC50) is over 50 µM. The “HDAC6 selectivity (fold)” value at human recombinant HDAC6 is listed as 1811 fold.
As to `FC(F)c1nnc(-c2ccc(Cn3cc(-c4csc(CN5CCC(F)(F)CC5)c4)nn3)nc2)o1` [Compound 16, 2-(difluoromethyl)-5-(6-((4-(5-((4,4-difluoropiperidin-1-yl)methyl)thiophen-3-yl)-1H-1,2,3-triazol-1-yl)methyl)pyridin-3-yl)-1,3,4-oxadiazole], the half-inhibitory concentration (IC50) at human recombinant HDAC1 is over 50 µM. The “HDAC6 selectivity (fold)” value at human recombinant HDAC6 amounted to 1237 fold.
The matching figures for `CC1(C)CCN(Cc2ccc(-c3cn(Cc4ccc(-c5nnc(C(F)F)o5)cn4)nn3)nc2)CC1` [Compound 17, 2-(difluoromethyl)-5-(6-((4-(5-((4,4-dimethylpiperidin-1-yl)methyl)pyridin-2-yl)-1H-1,2,3-triazol-1-yl)methyl)pyridin-3-yl)-1,3,4-oxadiazole]: over 50 µM and 1466 fold.
The matching figures for `Fc1ccc(CN2CCCCC2)cc1-c1cn(Cc2ccc(-c3nnc(C(F)F)o3)cn2)nn1` [Compound 18, 2-(difluoromethyl)-5-(6-((4-(2-fluoro-5-(piperidin-1-ylmethyl)phenyl)-1H-1,2,3-triazol-1-yl)methyl)pyridin-3-yl)-1,3,4-oxadiazole]: over 50 µM and 1845 fold.
The corresponding values for `CC1CCN(Cc2ccc(F)c(-c3cn(Cc4ccc(-c5nnc(C(F)F)o5)cn4)nn3)c2)CC1` [Compound 19, 2-(difluoromethyl)-5-(6-((4-(2-fluoro-5-((4-methylpiperidin-1-yl)methyl)phenyl)-1H-1,2,3-triazol-1-yl)methyl)pyridin-3-yl)-1,3,4-oxadiazole] are over 50 µM and 1492 fold.
As for `CN(C)Cc1ccc(F)c(-c2cn(Cc3ccc(-c4nnc(C(F)F)o4)cn3)nn2)c1` [Compound 20, 1-(3-(1-((5-(5-(difluoromethyl)-1,3,4-oxadiazol-2-yl)pyridin-2-yl)methyl)-1H-1,2,3-triazol-4-yl)-4-fluorophenyl)-N,N-dimethylmethanamine], on human recombinant HDAC1, the IC50 was over 50 µM. Also, the “HDAC6 selectivity (fold)” value on human recombinant HDAC6 came to 1798 fold.
The matching figures for `Fc1ccc(-c2cn(Cc3ccc(-c4nnc(C(F)F)o4)cn3)nn2)cc1CN1CCCC1` [Compound 22, 2-(difluoromethyl)-5-(6-((4-(4-fluoro-3-(pyrrolidin-1-ylmethyl)phenyl)-1H-1,2,3-triazol-1-yl)methyl)pyridin-3-yl)-1,3,4-oxadiazole]: over 50 µM and 3401 fold.
For `CN(C)Cc1cc(-c2cn(Cc3ccc(-c4nnc(C(F)F)o4)cn3)nn2)ccc1F` [Compound 23, 1-(5-(1-((5-(5-(difluoromethyl)-1,3,4-oxadiazol-2-yl)pyridin-2-yl)methyl)-1H-1,2,3-triazol-4-yl)-2-fluorophenyl)-N,N-dimethylmethanamine], on human recombinant HDAC1, the IC50 was over 50 µM. The “HDAC6 selectivity (fold)” value on human recombinant HDAC6 is given as 2702 fold.
Regarding `Fc1ccc(-c2cn(Cc3ccc(-c4nnc(C(F)F)o4)cn3)nn2)cc1CN1CCCCC1` [Compound 24, 2-(difluoromethyl)-5-(6-((4-(4-fluoro-3-(piperidin-1-ylmethyl)phenyl)-1H-1,2,3-triazol-1-yl)methyl)pyridin-3-yl)-1,3,4-oxadiazole], on human recombinant HDAC1, the IC50 was over 50 µM. Further, on human recombinant HDAC6, the “HDAC6 selectivity (fold)” value amounted to 2577 fold.
